Source: ChEMBL document CHEMBL3885881, “DrugMatrix”

Species: Rattus norvegicus
Assay: DrugMatrix - Regimen: Daily Repeat
Assay type: toxicity, organism-based, Sprague-Dawley
Set-up: regimen Daily Repeat, gender Male, age 6-8 weeks
Settings: in vivo, po, 500 mg/kg, route oral GAVAGE, dose level High, vehicle .5 % CMC; for ABSOLUTE BASOPHIL / ABSOLUTE EOSINOPHIL / ABSOLUTE LYMPHOCYTE / ABSOLUTE MONOCYTE / ABSOLUTE SEGMENTED NEUTROPHIL / BASOPHIL / EOSINOPHIL / ERYTHROCYTE COUNT / HEMATOCRIT / HEMOGLOBIN / LEUKOCYTE COUNT / LYMPHOCYTE / MEAN CORPUSCULAR HEMOGLOBIN / MEAN CORPUSCULAR HEMOGLOBIN CONCENTRATION / MEAN CORPUSCULAR VOLUME / MONOCYTE / NEUTROPHIL / NUCLEATED RED BLOOD CELLS / PLATELET COUNT: tissue Blood
[1] = 72 h, tissue Plasma, time 3 day
[2] = 120 h, tissue Plasma, time 5 day

Structure (SMILES): Clc1ccccc1 [CHLOROBENZENE]
- ABSOLUTE BASOPHIL (72 h, time 3 day): 0 CELLS/uL
- ABSOLUTE EOSINOPHIL (72 h, time 3 day): 274.33 CELLS/uL
- ABSOLUTE LYMPHOCYTE (72 h, time 3 day): 9310 CELLS/uL
- ABSOLUTE MONOCYTE (72 h, time 3 day): 211.33 CELLS/uL
- ABSOLUTE SEGMENTED NEUTROPHIL (72 h, time 3 day): 771 CELLS/uL
- BASOPHIL (72 h, time 3 day): 0%
- EOSINOPHIL (72 h, time 3 day): 2.33%
- ERYTHROCYTE COUNT (72 h, time 3 day): 6.63 x10E6/uL
- HEMATOCRIT (72 h, time 3 day): 39.23%
- HEMOGLOBIN (72 h, time 3 day): 14.07 G/DL
- LEUKOCYTE COUNT (72 h, time 3 day): 10.57 x10E3/uL
- LYMPHOCYTE (72 h, time 3 day): 88.33%
- MEAN CORPUSCULAR HEMOGLOBIN (72 h, time 3 day): 21.2 pg
- MEAN CORPUSCULAR HEMOGLOBIN CONCENTRATION (72 h, time 3 day): 35.9 G/DL
- MEAN CORPUSCULAR VOLUME (72 h, time 3 day): 59.17 fL
- MONOCYTE (72 h, time 3 day): 2%
- NEUTROPHIL (72 h, time 3 day): 7.33%
- NUCLEATED RED BLOOD CELLS (72 h, time 3 day): 0 /100WBC
- PLATELET COUNT (72 h, time 3 day): 768.67 x10E3/uL
- ALANINE AMINOTRANSFERASE [1]: 64 u/L
- ALBUMIN [1]: 4.1 G/DL
- ALKALINE PHOSPHATASE [1]: 361.67 u/L
- ASPARTATE AMINOTRANSFERASE [1]: 100.33 u/L
- BLOOD UREA NITROGEN [1]: 17.67 mg/dL
- CARBON DIOXIDE [1]: 26.33 mmol/L
- CHLORIDE [1]: 103.33 MEQ/L
- CHOLESTEROL [1]: 86.67 mg/dL
- CREATININE [1]: 0.21 mg/dL
- GLUCOSE [1]: 184.33 mg/dL
- LACTATE DEHYDROGENASE [1]: 325.33 u/L
- LIPASE [1]: 9.67 u/L
- PHOSPHORUS [1]: 14.17 mg/dL
- POTASSIUM [1]: 5.77 MEQ/L
- SODIUM [1]: 147.63 MEQ/L
- TOTAL BILIRUBIN [1]: 0.17 mg/dL
- TOTAL PROTEIN [1]: 5.83 G/DL
- URIC ACID [1]: 2.13 mg/dL
- ABSOLUTE BASOPHIL (120 h, time 5 day): 0 CELLS/uL
- ABSOLUTE EOSINOPHIL (120 h, time 5 day): 83.67 CELLS/uL
- ABSOLUTE LYMPHOCYTE (120 h, time 5 day): 5790.33 CELLS/uL
- ABSOLUTE MONOCYTE (120 h, time 5 day): 83 CELLS/uL
- ABSOLUTE SEGMENTED NEUTROPHIL (120 h, time 5 day): 376.33 CELLS/uL
- BASOPHIL (120 h, time 5 day): 0%
- EOSINOPHIL (120 h, time 5 day): 1.33%
- ERYTHROCYTE COUNT (120 h, time 5 day): 6.34 x10E6/uL
- HEMATOCRIT (120 h, time 5 day): 37.73%
- HEMOGLOBIN (120 h, time 5 day): 13.57 G/DL
- LEUKOCYTE COUNT (120 h, time 5 day): 6.33 x10E3/uL
- LYMPHOCYTE (120 h, time 5 day): 91.33%
- MEAN CORPUSCULAR HEMOGLOBIN (120 h, time 5 day): 21.37 pg
- MEAN CORPUSCULAR HEMOGLOBIN CONCENTRATION (120 h, time 5 day): 35.9 G/DL
- MEAN CORPUSCULAR VOLUME (120 h, time 5 day): 59.6 fL
- MONOCYTE (120 h, time 5 day): 1.33%
- NEUTROPHIL (120 h, time 5 day): 6%
- NUCLEATED RED BLOOD CELLS (120 h, time 5 day): 0 /100WBC
- PLATELET COUNT (120 h, time 5 day): 998.67 x10E3/uL
- ALANINE AMINOTRANSFERASE [2]: 58 u/L
- ALBUMIN [2]: 4.13 G/DL
- ALKALINE PHOSPHATASE [2]: 325 u/L
- ASPARTATE AMINOTRANSFERASE [2]: 91 u/L
- BLOOD UREA NITROGEN [2]: 16 mg/dL
- CARBON DIOXIDE [2]: 31.67 mmol/L
- CHLORIDE [2]: 102.67 MEQ/L
- CHOLESTEROL [2]: 68 mg/dL
- CREATININE [2]: 0.19 mg/dL
- GLUCOSE [2]: 160.67 mg/dL
- LACTATE DEHYDROGENASE [2]: 181.33 u/L
- LIPASE [2]: 9.33 u/L
- PHOSPHORUS [2]: 11.9 mg/dL
- POTASSIUM [2]: 5.74 MEQ/L
- SODIUM [2]: 150.1 MEQ/L
- TOTAL BILIRUBIN [2]: 0.2 mg/dL
- TOTAL PROTEIN [2]: 6.07 G/DL
